Results on nine molecules are retold here after patent US9006187B2, “Thiophene derivative as SGLT2 inhibitor and pharmaceutical composition comprising same” (Green Cross Corporation, priority 2010, dated 2015).

Some results are limits rather than exact numbers.

The test deals with Human SGLT2 (hSGLT2) (Homo sapiens (Human), UniProt P31639). Description: Inhibitory effects on human SGLT2 activities: sodium-dependent 14C-AMG glucose transport (uptake) assay in CHO cells expressing hSGLT2. The note with it: read-out: hSGLT2 Inhibitory Activity IC50; CHO cells stably expressing hSGLT2; 14C-AMG uptake, 37° C., 2 h; single determinations for examples; in-house assay.
Chain of Human SGLT2 (hSGLT2) (P31639 whole entry): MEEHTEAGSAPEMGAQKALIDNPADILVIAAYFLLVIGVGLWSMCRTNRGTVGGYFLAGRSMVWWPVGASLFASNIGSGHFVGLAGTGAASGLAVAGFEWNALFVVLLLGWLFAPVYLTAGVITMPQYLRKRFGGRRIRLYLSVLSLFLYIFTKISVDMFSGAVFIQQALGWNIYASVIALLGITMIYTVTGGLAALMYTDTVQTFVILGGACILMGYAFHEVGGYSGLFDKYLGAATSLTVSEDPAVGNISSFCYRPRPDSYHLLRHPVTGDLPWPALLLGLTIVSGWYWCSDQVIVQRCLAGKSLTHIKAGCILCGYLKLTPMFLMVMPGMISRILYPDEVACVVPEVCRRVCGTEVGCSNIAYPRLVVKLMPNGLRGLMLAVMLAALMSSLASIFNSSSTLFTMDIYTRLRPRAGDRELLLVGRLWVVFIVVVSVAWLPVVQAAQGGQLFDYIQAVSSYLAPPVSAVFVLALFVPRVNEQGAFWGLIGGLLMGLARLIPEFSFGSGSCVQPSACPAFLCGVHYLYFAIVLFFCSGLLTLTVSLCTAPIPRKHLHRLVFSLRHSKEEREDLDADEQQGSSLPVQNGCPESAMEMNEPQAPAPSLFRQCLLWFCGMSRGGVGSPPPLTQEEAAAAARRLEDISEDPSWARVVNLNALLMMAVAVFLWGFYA
For the molecule `OC[C@H]1O[C@@H](c2cc(Cc3ccc(OC4CCCC4)cc3)c(Cl)s2)[C@H](O)[C@@H](O)[C@@H]1O` [Example 11, (2R,3R,4S,5S,6R)-2-(5-chloro-4-(4-(cyclopentyloxy)benzyl)thiophen-2-yl)-6-(hydroxymethyl)-tetrahydro-2H-pyran-3,4,5-triol], the IC50 (as a rule, the concentration at which inhibition is half-maximal) was determined as 57.2 nM.

As for `Cc1cc([C@@H]2O[C@H](CO)[C@@H](O)[C@H](O)[C@H]2O)sc1Cc1ccc(F)cc1` [Example 29, (2R,3R,4S,5S,6R)-2-(5-(4-fluorobenzyl)-4-methylthiophen-2-yl)-6-(hydroxymethyl)tetrahydro-2H-pyran-3,4,5-triol], the IC50 is over 10000 nM.

Regarding `CCOc1ccc(Cc2cc([C@@H]3O[C@H](CO)[C@@H](O)[C@H](O)[C@H]3O)sc2Cl)cc1` [Example 1, (2R,3R,4S,5S,6R)-2-(5-chloro-4-(4-ethoxybenzyl)thiophen-2-yl)-6-(hydroxymethyl)-tetrahydro-2H-pyran-3,4,5-triol], the IC50 amounted to 34.6 nM.

With `CCCc1ccc(Cc2sc([C@@H]3O[C@H](CO)[C@@H](O)[C@H](O)[C@H]3O)cc2C)cc1` [Example 24, (2R,3S,4S,5R,6R)-2-(hydroxymethyl)-6-(4-methyl-5-(4-propylbenzyl)thiophen-2-yl)tetrahydro-2H-pyran-3,4,5-triol], the IC50 stood at 59.8 nM.

On to `Cc1ccc(Cc2sc([C@@H]3O[C@H](CO)[C@@H](O)[C@H](O)[C@H]3O)cc2C)cc1` [Example 26, (2R,3S,4S,5R,6R)-2-(hydroxymethyl)-6-(4-methyl-5-(4-methylbenzyl)thiophen-2-yl)tetrahydro-2H-pyran-3,4,5-triol], for which the IC50 amounted to 69.6 nM.

On to `CCCc1ccc(Cc2cc([C@@H]3O[C@H](CO)[C@@H](O)[C@H](O)[C@H]3O)sc2Cl)cc1` [Example 18, (2R,3R,4S,5S,6R)-2-(5-chloro-4-(4-propylbenzyl)thiophen-2-yl)-6-(hydroxymethyl)-tetrahydro-2H-pyran-3,4,5-triol], for which the IC50 amounted to 10.3 nM.

For the molecule `CCc1ccc(Cc2sc([C@@H]3O[C@H](CO)[C@@H](O)[C@H](O)[C@H]3O)cc2C)cc1` [Example 25, (2R,3R,4S,5S,6R)-2-(5-(4-ethylbenzyl)-4-methylthiophen-2-yl)-6-(hydroxymethyl)tetrahydro-2H-pyran-3,4,5-triol], the IC50 is 24.8 nM.

On to `Cc1sc([C@@H]2O[C@H](CO)[C@@H](O)[C@H](O)[C@H]2O)cc1Cc1ccc(O)cc1` [Example 23, (2R,3R,4S,5S,6R)-2-(4-(4-hydroxybenzyl)-5-methylthiophen-2-yl)-6-(hydroxymethyl)-tetrahydro-2H-pyran-3,4,5-triol], for which the IC50 came out at 50.2 nM.

For the molecule `CCOc1ccc(Cc2sc([C@@H]3O[C@H](CO)[C@@H](O)[C@H](O)[C@H]3O)cc2C)cc1` [Example 31, (2R,3R,4S,5S,6R)-2-(5-(4-ethoxybenzyl)-4-methylthiophen-2-yl)-6-(hydroxymethyl)tetrahydro-2H-pyran-3,4,5-triol], the IC50 is 71.4 nM.
